Values of other authors as cited in US20190357582A1, “Methods For Inducing Adipocyte Browning, Improving Metabolic Flexibility, And Reducing Detrimental White Adipose Tissue Deposition And Dysfunction” (MEAD JOHNSON NUTRITION COMPANY, priority 2017, published 2019).

Tested on: UCP1
Conditions: positive control for browning

In the case of COc1ccc2c(c1)[nH]c1c(C)nccc12 [Harmine], the browning activity is listed as “browning activity”.
